Test results published in PubChem BioAssay (NCI).
Values joined by “and” are separate entries in the source; they are usually repeats but may differ in a detail not shown here. Equal entries are not always repeated.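 A five-concentration, 48-hour dose response in 96-well plates underlies each endpoint, interpolated linearly between surrounding concentrations. Here, GI50 denotes the concentration required for 50% inhibition of growth. TGI denotes the concentration required for complete inhibition of growth.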

Columns and labels:
Assay in all cases: growth of human tumour cells (NCI), 48 h
[1] = test system: HOP-92 NSCLC
[2] = test system: T-47D breast
[3] = test system: SK-OV-3 ovarian
[4] = test system: A498 renal
[5] = test system: SW-620 colon
[6] = test system: SNB-75 CNS
[7] = test system: NCI-H226 lung
[8] = test system: RXF 393 renal
[9] = test system: SN12C renal
[10] = test system: NCI-H23 lung

SMILES: COc1cc([C@@H]2c3cc4c(cc3[C@@H](OC3OC5COC(C)OC5C(O)C3O)[C@H]3COC(=O)[C@H]23)OCO4)cc(OC)c1O (stereo partly drawn)
- TGI [1]: 37.9 µM and 114 µM
- GI50 [2]: 0.516 µM
- TGI [2]: 5.18 µM
- TGI [3]: 62.3 µM and 500 µM and 120 µM
- TGI [4]: 59.9 µM and 12 µM and 55.4 µM
- TGI [5]: 54.6 µM and 159 µM

SMILES: CN(C)NC(=O)NC12CC3CC(CC(C3)C1)C2
- TGI [6]: > 100 µM
- TGI [1]: > 100 µM
- TGI [7]: > 100 µM
- TGI [3]: > 100 µM
- TGI [8]: > 10 µM
- TGI [9]: > 100 µM
- TGI [4]: > 100 µM
- TGI [5]: > 100 µM
- TGI [10]: > 100 µM

SMILES: CC(=O)O[C@H]1CSC[C@@H](OC(C)=O)C1[N+](=O)[O-] (stereo partly drawn)
- TGI [6]: > 100 µM
- TGI [1]: 39.7 µM
- TGI [7]: > 100 µM
- TGI [3]: > 100 µM
- TGI [8]: 36.1 µM
- TGI [9]: > 100 µM
- TGI [4]: > 100 µM
- TGI [5]: 74.3 µM
- TGI [10]: > 100 µM

SMILES: Cc1ccc2nc(CN(CCN(Cc3nc4ccc(C)cc4[nH]3)Cc3nc4ccc(C)cc4[nH]3)Cc3nc4ccc(C)cc4[nH]3)[nH]c2c1
- GI50 [6]: 1.32 µM
- TGI [6]: 2.6 µM
- GI50 [1]: 1.45 µM
- TGI [1]: 2.89 µM
- GI50 [2]: 1.71 µM
- TGI [2]: 3.12 µM
- GI50 [7]: 1.82 µM
- TGI [7]: 3.21 µM
- GI50 [3]: 1.88 µM
- TGI [3]: 3.35 µM
- GI50 [9]: 1.86 µM
- TGI [9]: 3.26 µM
- GI50 [4]: 1.71 µM
- TGI [4]: 3.14 µM

SMILES: CCOC(=O)C(Oc1ccc(OC)c2c1C(=O)CCC2)c1ccccc1 (stereo not drawn)
- TGI [3]: > 100 µM
- TGI [9]: > 100 µM
- TGI [4]: > 100 µM
- TGI [5]: > 100 µM
- TGI [10]: > 100 µM

SMILES: COc1ccccc1NC(=O)c1sc2ncn(CCOc3ccccc3)c(=O)c2c1C
- GI50 [1]: > 50 µM
- TGI [1]: > 50 µM
- GI50 [2]: > 50 µM
- TGI [2]: > 50 µM
- GI50 [3]: > 50 µM
- TGI [3]: > 50 µM
- GI50 [9]: 17.2 µM
- TGI [9]: > 50 µM
- GI50 [5]: 2.33 µM
- TGI [5]: > 50 µM
- GI50 [10]: 4.93 µM
- TGI [10]: > 50 µM

SMILES: CC1=C(C(=S)Nc2ccc(Cl)c(C(=O)OC(C)C)c2)SCCO1
- TGI [6]: 43.7 µM
- TGI [1]: 38.5 µM
- TGI [2]: 51.7 µM
- TGI [7]: 44.6 µM
- TGI [3]: 54.8 µM
- TGI [9]: 32.9 µM
- TGI [4]: 30.7 µM
- TGI [5]: 44.7 µM
- TGI [10]: 62.2 µM

SMILES: C=C1C(=O)C23C(O)CC4C(C)(C)CCC(O)C4(C)C2CC(OC(C)=O)C1[C@H]3O (stereo partly drawn)
- TGI [6]: 22.7 µM
- TGI [1]: 7.01 µM
- TGI [7]: 28.1 µM
- TGI [3]: 41.4 µM
- TGI [8]: 5.26 µM
- TGI [9]: 12 µM
- TGI [4]: 30.9 µM
- TGI [5]: 2.53 µM
- TGI [10]: 8.38 µM

SMILES: CCN(CC)c1ccc(N=Nc2ccc(-c3nc4cccnc4s3)cc2)cc1
- TGI [6]: 98.9 µM
- TGI [1]: > 100 µM
- TGI [7]: > 100 µM
- TGI [3]: > 100 µM
- TGI [9]: > 100 µM
- TGI [4]: > 100 µM
- TGI [5]: > 100 µM
- TGI [10]: > 100 µM

SMILES: NN=C1/C(=C\c2ccccc2)CCC/C1=C/c1ccccc1
- TGI [6]: > 100 µM
- TGI [1]: 76.7 µM
- TGI [3]: > 100 µM
- TGI [8]: > 100 µM
- TGI [9]: > 100 µM
- TGI [4]: 95.8 µM
- TGI [5]: > 100 µM
- TGI [10]: > 100 µM

SMILES: CN(C(=O)C12C3C4C1C1C2C3C41C#N)C(C)(C)C (stereo not drawn)
- TGI [6]: > 100 µM
- TGI [7]: > 100 µM
- TGI [3]: > 100 µM
- TGI [9]: > 100 µM
- TGI [4]: > 100 µM
- TGI [5]: > 100 µM
- TGI [10]: > 100 µM

SMILES: O=C1CCNC/C1=C\c1ccccc1
- TGI [6]: > 100 µM
- TGI [7]: 60.8 µM
- TGI [3]: > 100 µM
- TGI [9]: > 100 µM
- TGI [4]: > 100 µM
- TGI [5]: 95.3 µM
- TGI [10]: 34.4 µM
